Reference: ChEMBL document CHEMBL1201862, “PubChem BioAssay data set” (2004)
Calls of active or inactive are those of the source.

How the values were obtained:
[1] = target: T1, Lysosomal acid glucosylceramidase (Homo sapiens, UniProt P04062); test: Dose response cell-based high throughput screening assay to identify enhancers of beta-glucosidase activity. [Related pubchem assays: 784 ]; format: functional
T1 sequence (P04062 whole entry): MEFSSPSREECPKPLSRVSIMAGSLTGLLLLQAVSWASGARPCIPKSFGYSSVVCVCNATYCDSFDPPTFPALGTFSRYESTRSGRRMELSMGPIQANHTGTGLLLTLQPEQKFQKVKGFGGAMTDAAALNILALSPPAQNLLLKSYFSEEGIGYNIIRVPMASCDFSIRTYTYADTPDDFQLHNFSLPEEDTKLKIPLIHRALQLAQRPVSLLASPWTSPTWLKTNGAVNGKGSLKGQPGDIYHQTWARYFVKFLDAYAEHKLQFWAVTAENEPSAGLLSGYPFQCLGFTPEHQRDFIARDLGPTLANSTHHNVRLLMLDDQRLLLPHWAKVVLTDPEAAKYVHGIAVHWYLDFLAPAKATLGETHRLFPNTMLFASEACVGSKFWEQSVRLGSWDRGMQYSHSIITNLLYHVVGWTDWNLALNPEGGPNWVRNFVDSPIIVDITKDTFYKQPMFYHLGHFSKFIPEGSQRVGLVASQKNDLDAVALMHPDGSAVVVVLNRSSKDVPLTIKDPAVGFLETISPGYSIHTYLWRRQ

[2] = A cytotoxicity screen of small molecule inhibitors of the PhoP region in Salmonella typhi identified in the primary screen. [Related pubchem assays: 1850, 1864, 1985 ]; format: functional
[3] = target: T2, Scavenger receptor class B member 1 (Mus musculus, UniProt Q61009); test: mouse SR-BI DiI-HDL uptake blockers – ldlA[mSR-BI] cells, fluorescence, cherry pick, dose response (AID 493194); format: functional, cell-based;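 further: cellular uptake of fluorescent DiI-labeled HDL measured as cell fluorescence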
T2 sequence (Q61009 whole entry): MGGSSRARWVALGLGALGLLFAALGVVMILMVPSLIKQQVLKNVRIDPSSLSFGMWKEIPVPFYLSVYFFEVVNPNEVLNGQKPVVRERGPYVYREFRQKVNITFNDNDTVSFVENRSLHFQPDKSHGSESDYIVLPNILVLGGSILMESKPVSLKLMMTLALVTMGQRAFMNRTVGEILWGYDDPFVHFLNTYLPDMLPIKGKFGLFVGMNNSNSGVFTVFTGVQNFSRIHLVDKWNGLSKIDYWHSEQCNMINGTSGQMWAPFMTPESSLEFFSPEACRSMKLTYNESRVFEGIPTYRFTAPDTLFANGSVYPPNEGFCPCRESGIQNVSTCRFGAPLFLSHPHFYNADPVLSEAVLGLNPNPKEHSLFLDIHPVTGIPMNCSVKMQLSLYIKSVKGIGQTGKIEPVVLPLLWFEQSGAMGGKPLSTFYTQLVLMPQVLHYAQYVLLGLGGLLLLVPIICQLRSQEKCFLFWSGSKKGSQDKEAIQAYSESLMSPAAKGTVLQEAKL

[4] = Counterscreen for IDE inhibitors: Luminescence-based cell-based high throughput dose response assay to identify compounds that are cytotoxic to HEK cells. [Related pubchem assays: 434962 (Primary screen (IDE inhibitors in singlicate)), 449730 (Counterscreen (Cytotoxicity in triplicate)), 435028 (Confirmation (IDE inhibitors in triplicate)) …; format: functional; settings: HEK293
Insulin-degrading enzyme = target: T3, Insulin-degrading enzyme (Homo sapiens, UniProt P14735); test: Dose Response: Fluorescence polarization-based cell-based high throughput dose response assay for inhibitors of insulin-degrading enzyme (IDE). [Related pubchem assays: 434962 (Primary screen (IDE inhibitors in singlicate)), 449730 (Counterscreen (Cytotoxicity in triplicate)), 435028 (Confirmation (IDE inhibitors in triplicate)), 434984 (Summary …; format: functional
T3 sequence (P14735 whole entry): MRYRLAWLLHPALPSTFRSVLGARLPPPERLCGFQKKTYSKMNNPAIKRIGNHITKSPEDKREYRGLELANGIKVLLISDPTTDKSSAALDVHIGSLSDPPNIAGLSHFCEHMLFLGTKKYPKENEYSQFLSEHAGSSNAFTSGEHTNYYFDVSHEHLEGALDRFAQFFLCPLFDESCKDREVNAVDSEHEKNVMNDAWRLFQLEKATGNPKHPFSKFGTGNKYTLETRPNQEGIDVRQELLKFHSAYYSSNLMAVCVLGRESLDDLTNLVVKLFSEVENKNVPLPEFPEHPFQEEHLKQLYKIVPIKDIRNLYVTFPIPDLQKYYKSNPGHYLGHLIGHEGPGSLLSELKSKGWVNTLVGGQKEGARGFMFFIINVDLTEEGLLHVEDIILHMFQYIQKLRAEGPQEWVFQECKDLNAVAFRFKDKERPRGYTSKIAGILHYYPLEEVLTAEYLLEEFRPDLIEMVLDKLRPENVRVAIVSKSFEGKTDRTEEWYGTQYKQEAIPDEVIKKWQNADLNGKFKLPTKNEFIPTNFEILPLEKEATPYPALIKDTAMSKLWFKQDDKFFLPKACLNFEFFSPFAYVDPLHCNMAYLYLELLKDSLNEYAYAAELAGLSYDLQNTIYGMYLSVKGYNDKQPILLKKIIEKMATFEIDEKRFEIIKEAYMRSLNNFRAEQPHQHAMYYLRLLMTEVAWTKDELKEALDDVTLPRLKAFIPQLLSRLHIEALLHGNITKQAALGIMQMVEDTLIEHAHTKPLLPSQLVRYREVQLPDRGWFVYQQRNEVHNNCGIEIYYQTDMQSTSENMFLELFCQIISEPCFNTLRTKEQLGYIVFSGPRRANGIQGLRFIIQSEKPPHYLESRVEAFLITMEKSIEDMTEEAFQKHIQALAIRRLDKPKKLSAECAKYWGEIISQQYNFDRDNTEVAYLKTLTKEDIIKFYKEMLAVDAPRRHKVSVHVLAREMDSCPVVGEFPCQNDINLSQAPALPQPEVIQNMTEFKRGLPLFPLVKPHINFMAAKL

HEK293 [5] = test: cells; format: functional, cell-based; settings: Homo sapiens
Tumor necrosis factor = Tumor necrosis factor (Homo sapiens, UniProt P01375); test: analog potency on TNFa NF-kB signaling – cell-based, revised, SAR follow-up (AID 2337); format: functional
Tumor necrosis factor, sequence (P01375 whole entry): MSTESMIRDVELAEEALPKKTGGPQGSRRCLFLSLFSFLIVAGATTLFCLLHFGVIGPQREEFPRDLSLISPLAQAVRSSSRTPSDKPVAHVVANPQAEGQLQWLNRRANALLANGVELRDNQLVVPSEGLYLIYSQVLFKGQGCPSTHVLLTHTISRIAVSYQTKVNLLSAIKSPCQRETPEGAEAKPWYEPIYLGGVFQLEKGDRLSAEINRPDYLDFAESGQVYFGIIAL

HEK293 [6] = test: cells; settings: Homo sapiens
HEK293 [7] = test: cells; format: functional, cell-based; settings: Homo sapiens; remark: listed apart in the source
[8] = target: Nucleotide-binding oligomerization domain-containing protein 2 (Homo sapiens, UniProt Q9HC29); test: PubChem AID 2334; format: functional
Nucleotide-binding oligomerization domain-containing protein 2, sequence (Q9HC29 whole entry, the tested form may be a part): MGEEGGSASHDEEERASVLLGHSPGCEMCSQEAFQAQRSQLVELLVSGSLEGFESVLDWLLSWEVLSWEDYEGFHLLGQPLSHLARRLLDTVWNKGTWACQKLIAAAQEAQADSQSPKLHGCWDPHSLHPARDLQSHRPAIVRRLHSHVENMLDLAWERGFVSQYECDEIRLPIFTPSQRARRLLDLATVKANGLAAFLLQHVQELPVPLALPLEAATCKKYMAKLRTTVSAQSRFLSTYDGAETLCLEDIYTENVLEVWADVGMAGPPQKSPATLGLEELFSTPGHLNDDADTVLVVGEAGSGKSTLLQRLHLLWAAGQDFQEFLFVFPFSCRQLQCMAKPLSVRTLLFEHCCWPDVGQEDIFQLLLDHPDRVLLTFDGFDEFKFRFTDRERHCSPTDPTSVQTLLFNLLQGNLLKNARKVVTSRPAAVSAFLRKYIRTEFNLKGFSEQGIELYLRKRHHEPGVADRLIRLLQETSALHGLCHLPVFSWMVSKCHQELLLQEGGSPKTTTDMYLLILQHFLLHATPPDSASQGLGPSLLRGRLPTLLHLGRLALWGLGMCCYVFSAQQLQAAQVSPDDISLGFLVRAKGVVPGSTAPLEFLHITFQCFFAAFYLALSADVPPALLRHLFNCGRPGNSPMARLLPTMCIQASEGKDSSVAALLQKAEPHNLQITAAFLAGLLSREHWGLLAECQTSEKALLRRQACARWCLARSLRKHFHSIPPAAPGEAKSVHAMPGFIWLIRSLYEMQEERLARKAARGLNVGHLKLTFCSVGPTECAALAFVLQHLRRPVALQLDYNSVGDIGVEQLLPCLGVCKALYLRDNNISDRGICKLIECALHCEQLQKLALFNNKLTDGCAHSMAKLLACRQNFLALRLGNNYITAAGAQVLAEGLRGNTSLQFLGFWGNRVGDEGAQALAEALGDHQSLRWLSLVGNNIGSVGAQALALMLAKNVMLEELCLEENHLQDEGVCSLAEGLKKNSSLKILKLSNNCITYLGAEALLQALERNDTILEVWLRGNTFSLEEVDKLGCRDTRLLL

HEK293 [9] = test: NOD2 signaling inhibitors in MDP-stimulated cells, cell-based, uHTS, luminescence (AID 2001); format: functional; settings: Homo sapiens
[10] = target: T4, Nucleotide-binding oligomerization domain-containing protein 1 (Homo sapiens, UniProt Q9Y239); test: blockers of NOD1 pathway activity – revised, SAR follow-up (AID 2333); format: functional
T4 sequence (Q9Y239 whole entry): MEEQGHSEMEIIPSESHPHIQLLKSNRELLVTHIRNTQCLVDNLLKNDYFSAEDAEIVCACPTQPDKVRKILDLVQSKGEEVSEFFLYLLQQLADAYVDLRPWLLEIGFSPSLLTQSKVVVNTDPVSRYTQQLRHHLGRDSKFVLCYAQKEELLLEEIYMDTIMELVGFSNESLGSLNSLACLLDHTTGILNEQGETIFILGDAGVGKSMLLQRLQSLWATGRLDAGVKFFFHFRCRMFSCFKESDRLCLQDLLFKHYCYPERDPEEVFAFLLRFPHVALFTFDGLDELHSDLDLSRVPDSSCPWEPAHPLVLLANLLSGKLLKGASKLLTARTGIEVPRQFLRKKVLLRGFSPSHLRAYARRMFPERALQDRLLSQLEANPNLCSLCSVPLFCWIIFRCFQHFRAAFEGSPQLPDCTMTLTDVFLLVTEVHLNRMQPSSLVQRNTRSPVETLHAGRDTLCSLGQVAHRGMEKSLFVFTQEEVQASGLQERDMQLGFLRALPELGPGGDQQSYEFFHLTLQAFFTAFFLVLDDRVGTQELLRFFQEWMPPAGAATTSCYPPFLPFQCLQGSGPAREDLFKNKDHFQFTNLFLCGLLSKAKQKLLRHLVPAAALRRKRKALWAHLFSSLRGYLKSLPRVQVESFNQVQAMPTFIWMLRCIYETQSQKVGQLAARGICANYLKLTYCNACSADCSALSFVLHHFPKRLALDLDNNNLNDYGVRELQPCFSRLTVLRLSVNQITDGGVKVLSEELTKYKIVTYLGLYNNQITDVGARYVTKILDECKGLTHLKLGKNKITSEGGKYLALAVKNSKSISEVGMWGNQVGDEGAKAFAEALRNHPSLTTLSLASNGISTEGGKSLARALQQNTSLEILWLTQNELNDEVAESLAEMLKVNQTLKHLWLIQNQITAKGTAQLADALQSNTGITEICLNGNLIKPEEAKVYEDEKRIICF

HEK293 [11] = test: inhibition of NOD1-driven NF-kB reporter – cell-based, luminescence, uHTS, primary screen (AID 1578); format: functional; settings: Homo sapiens
Ion channel NompC = Ion channel NompC (Danio rerio, UniProt Q7T1G6); test: Fluorescence counterscreen assay for TRPML3 agonists: dose response cell-based high-throughput screening assay to identify agonists of the transient receptor potential channel N1 (TRPN1). [Related pubchem assays: 1526, 1424, 1448 ]; format: functional
Ion channel NompC, sequence (Q7T1G6 whole entry): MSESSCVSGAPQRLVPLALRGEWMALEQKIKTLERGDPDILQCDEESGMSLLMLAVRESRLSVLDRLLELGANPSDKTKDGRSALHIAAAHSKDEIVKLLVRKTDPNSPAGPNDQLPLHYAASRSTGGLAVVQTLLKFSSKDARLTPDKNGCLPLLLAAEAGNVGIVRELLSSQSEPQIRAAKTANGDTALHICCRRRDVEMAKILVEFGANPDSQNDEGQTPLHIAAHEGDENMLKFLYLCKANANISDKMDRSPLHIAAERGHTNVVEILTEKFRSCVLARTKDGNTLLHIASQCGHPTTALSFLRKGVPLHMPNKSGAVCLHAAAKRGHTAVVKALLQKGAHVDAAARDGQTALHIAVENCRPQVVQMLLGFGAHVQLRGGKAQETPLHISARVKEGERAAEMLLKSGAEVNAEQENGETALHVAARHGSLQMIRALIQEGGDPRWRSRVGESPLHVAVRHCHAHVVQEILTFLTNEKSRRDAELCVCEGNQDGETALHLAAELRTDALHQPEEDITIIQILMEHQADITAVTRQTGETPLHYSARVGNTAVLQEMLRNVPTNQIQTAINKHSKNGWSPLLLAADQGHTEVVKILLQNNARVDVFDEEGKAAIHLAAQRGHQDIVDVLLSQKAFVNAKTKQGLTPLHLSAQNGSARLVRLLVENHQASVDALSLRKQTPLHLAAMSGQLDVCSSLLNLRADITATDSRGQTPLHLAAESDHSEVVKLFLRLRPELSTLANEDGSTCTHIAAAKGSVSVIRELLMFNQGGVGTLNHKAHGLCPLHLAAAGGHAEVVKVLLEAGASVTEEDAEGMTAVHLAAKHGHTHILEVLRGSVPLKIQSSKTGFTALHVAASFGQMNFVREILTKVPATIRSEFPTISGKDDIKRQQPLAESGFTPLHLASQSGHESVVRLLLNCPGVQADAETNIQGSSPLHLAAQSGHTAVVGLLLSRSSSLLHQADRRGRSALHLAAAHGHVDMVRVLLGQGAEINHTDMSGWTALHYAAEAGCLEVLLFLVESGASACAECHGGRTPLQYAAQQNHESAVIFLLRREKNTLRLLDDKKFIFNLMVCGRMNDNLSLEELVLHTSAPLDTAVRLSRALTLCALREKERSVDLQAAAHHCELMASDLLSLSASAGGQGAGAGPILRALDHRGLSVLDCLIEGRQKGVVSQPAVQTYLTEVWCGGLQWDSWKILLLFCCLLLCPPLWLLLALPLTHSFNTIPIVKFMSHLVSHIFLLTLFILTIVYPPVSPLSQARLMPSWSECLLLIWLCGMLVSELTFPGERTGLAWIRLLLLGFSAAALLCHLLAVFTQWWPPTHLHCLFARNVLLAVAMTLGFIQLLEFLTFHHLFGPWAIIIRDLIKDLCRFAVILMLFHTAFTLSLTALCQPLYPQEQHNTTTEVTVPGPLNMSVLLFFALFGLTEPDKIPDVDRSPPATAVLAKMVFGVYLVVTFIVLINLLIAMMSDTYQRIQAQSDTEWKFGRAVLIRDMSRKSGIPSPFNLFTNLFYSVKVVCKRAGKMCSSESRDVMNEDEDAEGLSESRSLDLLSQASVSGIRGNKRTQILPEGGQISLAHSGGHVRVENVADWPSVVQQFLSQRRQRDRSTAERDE

Mucolipin-3 = target: T5, Mucolipin-3 (Homo sapiens, UniProt Q8TDD5); test: Dose response cell-based high-throughput screening assay for agonists of the transient receptor potential channel ML3 (TRPML3). [Related pubchem assays: 1526, 1424, 1448 ]; format: functional
T5 sequence (Q8TDD5 whole entry): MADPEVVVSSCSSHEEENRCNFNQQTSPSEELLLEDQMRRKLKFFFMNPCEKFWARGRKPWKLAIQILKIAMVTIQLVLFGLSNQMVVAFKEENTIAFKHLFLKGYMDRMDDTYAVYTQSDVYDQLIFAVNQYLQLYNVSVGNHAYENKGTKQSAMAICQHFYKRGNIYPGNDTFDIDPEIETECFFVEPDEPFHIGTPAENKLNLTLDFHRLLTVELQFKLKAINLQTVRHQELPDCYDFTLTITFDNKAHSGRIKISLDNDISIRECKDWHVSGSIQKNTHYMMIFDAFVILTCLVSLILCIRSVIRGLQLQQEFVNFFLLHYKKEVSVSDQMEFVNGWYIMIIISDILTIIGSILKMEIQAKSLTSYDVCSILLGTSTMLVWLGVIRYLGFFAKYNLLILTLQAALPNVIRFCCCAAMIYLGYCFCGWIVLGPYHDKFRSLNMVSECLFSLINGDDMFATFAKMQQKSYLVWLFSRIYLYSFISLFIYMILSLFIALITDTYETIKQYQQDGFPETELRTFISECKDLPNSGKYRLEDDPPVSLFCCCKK

[12] = target: Dual specificity protein phosphatase 3 (Homo sapiens, UniProt P51452); test: inhibition constants for human DUSP3 – biochemical, colorimetric, SAR follow-up (AID 2004)
Dual specificity protein phosphatase 3, sequence (P51452 whole entry): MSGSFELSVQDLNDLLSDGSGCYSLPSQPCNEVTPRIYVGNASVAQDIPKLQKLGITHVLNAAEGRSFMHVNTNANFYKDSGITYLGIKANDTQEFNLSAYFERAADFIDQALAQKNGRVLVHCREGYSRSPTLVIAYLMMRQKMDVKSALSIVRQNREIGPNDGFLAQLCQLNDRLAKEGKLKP

INS1 = test: INS-1E survival protection against cytokine death – cell-based, luminescence, retest, dose response (AID 449756); format: functional; settings: Rattus norvegicus;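 further: cell death triggered by IL-1 beta plus TNF-alpha plus IFN-gamma mixture; protective hits raise ATP signal compared with cytokine alone wells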
Large T antigen = Large T antigen (Simian virus 40, UniProt P03070); format: functional, Betapolyomavirus macacae;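 further: Confirmatory-stage PubChem screen for compounds that inhibit SV40 T antigen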
Large T antigen, sequence (P03070 whole entry): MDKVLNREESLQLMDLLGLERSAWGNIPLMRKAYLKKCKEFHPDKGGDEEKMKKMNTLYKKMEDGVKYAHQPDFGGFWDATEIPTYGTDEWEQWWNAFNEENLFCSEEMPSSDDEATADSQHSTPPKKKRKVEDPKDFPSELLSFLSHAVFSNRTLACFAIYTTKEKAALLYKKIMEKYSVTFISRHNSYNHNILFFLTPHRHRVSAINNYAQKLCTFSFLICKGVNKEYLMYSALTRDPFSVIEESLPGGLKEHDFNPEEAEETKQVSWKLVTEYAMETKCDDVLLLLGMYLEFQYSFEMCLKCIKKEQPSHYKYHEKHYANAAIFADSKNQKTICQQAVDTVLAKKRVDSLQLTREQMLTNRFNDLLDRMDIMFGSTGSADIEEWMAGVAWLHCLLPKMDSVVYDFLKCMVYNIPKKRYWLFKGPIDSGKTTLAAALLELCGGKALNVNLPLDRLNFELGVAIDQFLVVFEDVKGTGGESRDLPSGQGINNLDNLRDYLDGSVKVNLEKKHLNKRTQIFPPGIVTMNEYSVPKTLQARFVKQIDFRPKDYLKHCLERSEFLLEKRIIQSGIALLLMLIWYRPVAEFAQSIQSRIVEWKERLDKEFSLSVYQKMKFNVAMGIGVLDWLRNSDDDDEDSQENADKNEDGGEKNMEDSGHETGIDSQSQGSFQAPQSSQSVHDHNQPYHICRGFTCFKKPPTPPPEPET

[13] = target: Eukaryotic translation initiation factor 4E (Mus musculus, UniProt P63073); test: blockers of eIF4G binding by eIF4E – biochemical, TR-FRET, dose response (AID 855); format: functional;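 further: potency for disrupting eIF4E binding to eIF4GI seen as loss of FRET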
Eukaryotic translation initiation factor 4E, sequence (P63073 whole entry): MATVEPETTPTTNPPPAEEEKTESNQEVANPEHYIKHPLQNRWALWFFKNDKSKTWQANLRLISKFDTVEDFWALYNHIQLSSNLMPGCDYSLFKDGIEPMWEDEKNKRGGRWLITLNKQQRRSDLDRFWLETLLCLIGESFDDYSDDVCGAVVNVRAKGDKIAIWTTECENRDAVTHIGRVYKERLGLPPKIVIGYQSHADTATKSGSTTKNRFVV

[14] = target: Induced myeloid leukemia cell differentiation protein Mcl-1 (Homo sapiens, UniProt Q07820); format: functional
Induced myeloid leukemia cell differentiation protein Mcl-1, sequence (Q07820 whole entry): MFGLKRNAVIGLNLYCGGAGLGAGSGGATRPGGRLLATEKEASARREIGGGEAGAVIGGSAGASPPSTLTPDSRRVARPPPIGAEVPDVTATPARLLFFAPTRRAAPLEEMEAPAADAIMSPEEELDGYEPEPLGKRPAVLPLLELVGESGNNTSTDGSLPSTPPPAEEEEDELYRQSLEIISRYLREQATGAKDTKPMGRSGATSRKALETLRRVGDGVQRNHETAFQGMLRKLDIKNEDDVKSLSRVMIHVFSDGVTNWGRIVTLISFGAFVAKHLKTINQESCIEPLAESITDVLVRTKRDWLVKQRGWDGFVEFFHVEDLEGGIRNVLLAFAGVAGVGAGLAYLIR

## CCN1CCN(C(c2ccc(OC)c(OC)c2)c2nnnn2C(C)(C)C)CC1 (configuration not stated)
[1]
  EC50: > 50 µM (not active)

## Oc1c(Br)cc(Br)cc1CNc1ccccn1
[2]
  EC50: > 50 µM (active)

## CCc1cc2cc3c(cc2nc1SCC(=O)OC(C)C)OCO3
[3]
  AC50: 0.366 µM (active)

## COc1ccc2[nH]c3c(NCc4ccco4)ncnc3c2c1
[4]
  IC50: 19.3 µM (not active)
Insulin-degrading enzyme
  IC50: 21.2 µM (not active)

## O=C1CC(Cc2ccccc2)C(=O)N1c1ccc(Cl)cn1 (configuration not stated)
[1]
  EC50: > 10 µM (not active)

## CCCCn1c(SCC(=O)Nc2nnc(C(C)C)s2)nc2c1c(=O)n(C)c(=O)n2C
HEK293 [5]
  IC50: > 20 µM (inactive)
Tumor necrosis factor
  IC50: 5.82 µM (active)
HEK293 [6]
  IC50: > 20 µM (inactive)
HEK293 [7]
  IC50: > 20 µM (inactive)
[8]
  IC50: 6.89 µM (active)
HEK293 [9]
  IC50: 9.58 µM (active)
[10]
  IC50: 5.79 µM (active)
HEK293 [11]
  EC50: 7.02 µM (active)

## CCCOc1ccc(S(=O)(=O)n2cc(F)c(=O)[nH]c2=O)cc1
[2]
  EC50: > 50 µM (active)

## O=S(=O)(c1ccc2ccccc2c1)N1CCCCCC1
Ion channel NompC
  EC50: > 29.9 µM (not active)
Mucolipin-3
  EC50: 1.71 µM (active)

## COc1ccc(C(=O)C2CCN(CC(=O)Nc3cc(C)cc(C)c3)CC2)cc1
[2]
  EC50: > 50 µM (active)

## COc1cc2c(C(=O)NCCCN3CCN(c4cccc(Cl)c4)CC3)cn(C)c(=O)c2cc1OC
[1]
  EC50: > 50 µM (not active)

## CCN1C(=O)/C(=C/c2ccoc2)C(=O)NC1=S
[12]
  Ki: 56.7 µM (inactive)

## CCOc1ccccc1Nc1nc(-c2sc(NC(=O)c3cccc(Cl)c3)nc2C)cs1
[3]
  AC50: 5.75 µM (active)

## COc1ccc(OC)c(CCNC(=O)c2ccc3c(c2)N(Cc2ccc(F)cc2)CCS3)c1
[3]
  AC50: 1.7 µM (active)

## CC1=CC(C)(C)N(C(=O)CSc2nnc(-c3ccc(C)cc3)o2)c2ccc(C)cc21
INS1
  AC50: 14.8 µM (active)
Ion channel NompC
  EC50: > 29.9 µM (not active)
Mucolipin-3
  EC50: 7.81 µM (active)

## CCOc1cc(/C=C2/N=C(c3ccc(NC(C)=O)cc3)OC2=O)ccc1OCc1ccccc1
[12]
  Ki: 22.9 µM (inactive)

## COc1ccc(C(=O)c2sc3nc(-c4ccccc4)ccc3c2N)cc1
[4]
  IC50: 25.4 µM (not active)
Insulin-degrading enzyme
  IC50: > 55.9 µM (not active)

## Nc1nc2ccccc2n1Cc1ccccc1Cl
Tumor necrosis factor
  IC50: 12.5 µM (active)
HEK293 [6]
  IC50: > 20 µM (inactive)
[8]
  IC50: 15.3 µM (active)
[10]
  IC50: 12.9 µM (active)

## O=c1/c(=C\c2cc([N+](=O)[O-])cc([N+](=O)[O-])c2O)sc2nc3ccccc3n12
Large T antigen
  IC50: 52.8 µM (active)
[4]
  IC50: > 55.7 µM (not active)
[13]
  IC50: 50 µM (inactive)
[14]
  IC50: 1.54 µM (active)
Insulin-degrading enzyme
  IC50: > 55.9 µM (not active)
